According to US6677460B1, “Aromatic carboxylic acid bicyclic sulfur compounds” (Idemitsu Kosan Company, Limited, priority 1993, dated 2004):

Assays:
Assay type in all cases: in vivo
cocklebur [1] = assay: Foliar treatment test (7); conditions: 20th day after spraying
Experimental: (§1) 90 Parts by weight of the above carrier and 10 parts by weight of each of Compounds obtained in the above Preparation Examples were uniformly pulverized and mixed to obtain herbicides. Further, for Herbicide Comparative Examples, comparative herbicides were prepared by uniformly pulverizing and mixing 90 parts by weight of the above carrier and 10 parts by weight of each of the following Compounds x, y, A, B and C.
(§2) (7) Biological Test (Foliar Treatment Test, Herbicide Examples 43-47 and Comparative Examples 11 and 12)
(§3) Seeds of weeds such as large crabgrass, barnyardgrass, green foxtail, cocklebur, velvetleaf and slender amaranth and seeds of corn, wheat and barley were sown in 1/5,000-are Wagner pots filled with upland soil, and covered with upland soil. The seeds were grown in a greenhouse, and at the stage of 1 to 2 leaves of these plants, a predetermined amount of the herbicide prepared in the above (1) was suspended in water and uniformly sprayed onto leaf and stalk portions at a rate of 200 liter/10 ares. Thereafter, the plants were grown in the greenhouse, and on the 20th day after the spraying treatment, the herbicide was evaluated for herbicidal efficacy.
(§4) The herbicidal efficacy and phytotoxcity to crops were shown on the basis of the following ratings.
(§5) The ratio of remaining plant weight to non-treated was determined on the basis of the ratio of remaining plant weight to non-treated=(remaining plant weight in treated plot/remaining plant weight in non-treated plot)×100. This is also applicable to biological tests hereinafter.

slender amaranth [2] = assay: Foliar treatment test (7); conditions: 20th day after spraying
Experimental: as §1, §2, §3, §4, §5

velvetleaf [3] = assay: Foliar treatment test (7); conditions: 20th day after spraying
Experimental: as §1, §2, §3, §4, §5

barnyardgrass = assay: Foliar treatment test (7); conditions: 20th day after spraying
Experimental: as §1, §2, §3, §4, §5

large crabgrass [4] = assay: Foliar treatment test (7); conditions: 20th day after spraying
Experimental: as §1, §2, §3, §4, §5

green foxtail [5] = assay: Foliar treatment test (7); conditions: 20th day after spraying
Experimental: as §1, §2, §3, §4, §5

barnyard grass [6] = assay: Upland soil treatment test (8); conditions: 20th day after spraying
Experimental: as §1
(§6) (8) Biological Test (Upland Soil Treatment Test, Herbicide Examples 48-52 and Herbicide Comparative Examples 13 and 14)
as §3, with “barnyard brass,” for “barnyardgrass,”, “amarnth” for “amaranth”, “covert” for “covered”, “Then,” for “The seeds were grown in a greenhouse, and at the stage of 1 to 2 leaves of these plants,”, “the soil surface.” for “leaf and stalk portions at a rate of 200 liter/10 ares.”, “plant” for “plants”
(§7) The herbicidal efficacy and the phytotoxicity to crops are shown on the basis of the ratings described in (2) Foliar treatment test.

cocklebur [7] = assay: Upland soil treatment test (8); conditions: 20th day after spraying
Experimental: as §1, §6
as §3, with “barnyard brass,” for “barnyardgrass,”, “amarnth” for “amaranth”, “covert” for “covered”, “Then,” for “The seeds were grown in a greenhouse, and at the stage of 1 to 2 leaves of these plants,”, “the soil surface.” for “leaf and stalk portions at a rate of 200 liter/10 ares.”, “plant” for “plants”
as §7

slender amaranth [8] = assay: Upland soil treatment test (8); conditions: 20th day after spraying
Experimental: as §1, §6
as §3, with “barnyard brass,” for “barnyardgrass,”, “amarnth” for “amaranth”, “covert” for “covered”, “Then,” for “The seeds were grown in a greenhouse, and at the stage of 1 to 2 leaves of these plants,”, “the soil surface.” for “leaf and stalk portions at a rate of 200 liter/10 ares.”, “plant” for “plants”
as §7

velvetleaf [9] = assay: Upland soil treatment test (8); conditions: 20th day after spraying
Experimental: as §1, §6
as §3, with “barnyard brass,” for “barnyardgrass,”, “amarnth” for “amaranth”, “covert” for “covered”, “Then,” for “The seeds were grown in a greenhouse, and at the stage of 1 to 2 leaves of these plants,”, “the soil surface.” for “leaf and stalk portions at a rate of 200 liter/10 ares.”, “plant” for “plants”
as §7

large crabgrass [10] = assay: Upland soil treatment test (8); conditions: 20th day after spraying
Experimental: as §1, §6
as §3, with “barnyard brass,” for “barnyardgrass,”, “amarnth” for “amaranth”, “covert” for “covered”, “Then,” for “The seeds were grown in a greenhouse, and at the stage of 1 to 2 leaves of these plants,”, “the soil surface.” for “leaf and stalk portions at a rate of 200 liter/10 ares.”, “plant” for “plants”
as §7

green foxtail [11] = assay: Upland soil treatment test (8); conditions: 20th day after spraying
Experimental: as §1, §6
as §3, with “barnyard brass,” for “barnyardgrass,”, “amarnth” for “amaranth”, “covert” for “covered”, “Then,” for “The seeds were grown in a greenhouse, and at the stage of 1 to 2 leaves of these plants,”, “the soil surface.” for “leaf and stalk portions at a rate of 200 liter/10 ares.”, “plant” for “plants”
as §7

barnyard grass [12] = assay: Upland soil treatment test (3); conditions: 20th day after treatment
Experimental: as §1
(§8) (3) Biological Test (Upland Soil Treatment Test, Herbicide Examples 3 and 4 and Herbicide Comparative Examples 3 and 4)
as §3, with “Then,” for “The seeds were grown in a greenhouse, and at the stage of 1 to 2 leaves of these plants,”, “the soil surface.” for “leaf and stalk portions at a rate of 200 liter/10 ares.”, “on” for “on the”, “the” for “the spraying”
as §7

cocklebur [13] = assay: Upland soil treatment test (3); conditions: 20th day after treatment
Experimental: as §1, §8
as §3, with “Then,” for “The seeds were grown in a greenhouse, and at the stage of 1 to 2 leaves of these plants,”, “the soil surface.” for “leaf and stalk portions at a rate of 200 liter/10 ares.”, “on” for “on the”, “the” for “the spraying”
as §7

slender amaranth [14] = assay: Upland soil treatment test (3); conditions: 20th day after treatment
Experimental: as §1, §8
as §3, with “Then,” for “The seeds were grown in a greenhouse, and at the stage of 1 to 2 leaves of these plants,”, “the soil surface.” for “leaf and stalk portions at a rate of 200 liter/10 ares.”, “on” for “on the”, “the” for “the spraying”
as §7

velvetleaf [15] = assay: Upland soil treatment test (3); conditions: 20th day after treatment
Experimental: as §1, §8
as §3, with “Then,” for “The seeds were grown in a greenhouse, and at the stage of 1 to 2 leaves of these plants,”, “the soil surface.” for “leaf and stalk portions at a rate of 200 liter/10 ares.”, “on” for “on the”, “the” for “the spraying”
as §7

large crabgrass [16] = assay: Upland soil treatment test (3); conditions: 20th day after treatment
Experimental: as §1, §8
as §3, with “Then,” for “The seeds were grown in a greenhouse, and at the stage of 1 to 2 leaves of these plants,”, “the soil surface.” for “leaf and stalk portions at a rate of 200 liter/10 ares.”, “on” for “on the”, “the” for “the spraying”
as §7

green foxtail [17] = assay: Upland soil treatment test (3); conditions: 20th day after treatment
Experimental: as §1, §8
as §3, with “Then,” for “The seeds were grown in a greenhouse, and at the stage of 1 to 2 leaves of these plants,”, “the soil surface.” for “leaf and stalk portions at a rate of 200 liter/10 ares.”, “on” for “on the”, “the” for “the spraying”
as §7

barnyard grass [18] = assay: Foliar treatment test (2); conditions: 20th day after treatment
Experimental: as §1
(§9) (2) Biological Test (Foliar Treatment Test, Herbicide Examples 1 and 2 and Herbicide Comparative Examples 1 and 2)
as §3, with “barnyard grass,” for “barnyardgrass,”, “1˜2” for “1 to 2”, “are.” for “ares.”, “on” for “on the”, “the” for “the spraying”
as §4, §5

cocklebur [19] = assay: Foliar treatment test (2); conditions: 20th day after treatment
Experimental: as §1, §9
as §3, with “barnyard grass,” for “barnyardgrass,”, “1˜2” for “1 to 2”, “are.” for “ares.”, “on” for “on the”, “the” for “the spraying”
as §4, §5

slender amaranth [20] = assay: Foliar treatment test (2); conditions: 20th day after treatment
Experimental: as §1, §9
as §3, with “barnyard grass,” for “barnyardgrass,”, “1˜2” for “1 to 2”, “are.” for “ares.”, “on” for “on the”, “the” for “the spraying”
as §4, §5

velvetleaf [21] = assay: Foliar treatment test (2); conditions: 20th day after treatment
Experimental: as §1, §9
as §3, with “barnyard grass,” for “barnyardgrass,”, “1˜2” for “1 to 2”, “are.” for “ares.”, “on” for “on the”, “the” for “the spraying”
as §4, §5

large crabgrass [22] = assay: Foliar treatment test (2); conditions: 20th day after treatment
Experimental: as §1, §9
as §3, with “barnyard grass,” for “barnyardgrass,”, “1˜2” for “1 to 2”, “are.” for “ares.”, “on” for “on the”, “the” for “the spraying”
as §4, §5

green foxtail [23] = assay: Foliar treatment test (2); conditions: 20th day after treatment
Experimental: as §1, §9
as §3, with “barnyard grass,” for “barnyardgrass,”, “1˜2” for “1 to 2”, “are.” for “ares.”, “on” for “on the”, “the” for “the spraying”
as §4, §5
Also: ranges in brackets are in %.

CCn1ncc(C(=O)c2cc(C)c3c(c2C)CCCS3)c1O [Compound 47-2, 5,8-dimethyl-6-(1-ethyl-5-hydroxypyrazol-4-yl)carbonylthiochroman]
Herbicidal Efficacy cocklebur (cocklebur [1]; 300 g a.i./hectare): 5 (0) | Herbicidal Efficacy slender amaranth (slender amaranth [2]; 300 g a.i./hectare): 5 (0) | Herbicidal Efficacy velvetleaf (velvetleaf [3]; 300 g a.i./hectare): 5 (0) | Herbicidal Efficacy barnyard grass (barnyardgrass; 300 g a.i./hectare): 2 (41-60) | Herbicidal Efficacy large crabgrass (large crabgrass [4]; 300 g a.i./hectare): 5 (0) | Herbicidal Efficacy green foxtail (green foxtail [5]; 300 g a.i./hectare): 5 (0) | Herbicidal Efficacy barnyard grass (barnyard grass [6]; 300 g a.i./hectare): 5 (0) | Herbicidal Efficacy cocklebur (cocklebur [7]; 300 g a.i./hectare): 0 (81-100) | Herbicidal Efficacy slender amaranth (slender amaranth [8]; 300 g a.i./hectare): 5 (0) | Herbicidal Efficacy velvetleaf (velvetleaf [9]; 300 g a.i./hectare): 5 (0) | Herbicidal Efficacy large crabgrass (large crabgrass [10]; 300 g a.i./hectare): 1 (61-80) | Herbicidal Efficacy green foxtail (green foxtail [11]; 300 g a.i./hectare): 4 (1-20)

CCn1ncc(C(=O)c2ccc(S(C)(=O)=O)cc2C)c1O [y, reference compound]
Herbicidal Efficacy barnyard grass (barnyard grass [12]; dosage 3 g a.i./are): 2 (41-60) | Herbicidal Efficacy cocklebur (cocklebur [13]; dosage 3 g a.i./are): 0 (81-100) | Herbicidal Efficacy slender amaranth (slender amaranth [14]; dosage 3 g a.i./are): 0 (81-100) | Herbicidal Efficacy velvetleaf (velvetleaf [15]; dosage 3 g a.i./are): 0 (81-100) | Herbicidal Efficacy large crabgrass (large crabgrass [16]; dosage 3 g a.i./are): 3 (21-40) | Herbicidal Efficacy green foxtail (green foxtail [17]; dosage 3 g a.i./are): 2 (41-60) | Herbicidal Efficacy barnyard grass (barnyard grass [18]; dosage 3 g a.i./are): 0 (81-100) | Herbicidal Efficacy cocklebur (cocklebur [19]; dosage 3 g a.i./are): 3 (21-40) | Herbicidal Efficacy slender amaranth (slender amaranth [20]; dosage 3 g a.i./are): 2 (41-60) | Herbicidal Efficacy velvetleaf (velvetleaf [21]; dosage 3 g a.i./are): 3 (21-40) | Herbicidal Efficacy large crabgrass (large crabgrass [22]; dosage 3 g a.i./are): 0 (81-100) | Herbicidal Efficacy green foxtail (green foxtail [23]; dosage 3 g a.i./are): 0 (81-100) | Herbicidal Efficacy cocklebur (cocklebur [1]; 300 g a.i./hectare): 3 (21-40) | Herbicidal Efficacy slender amaranth (slender amaranth [2]; 300 g a.i./hectare): 2 (41-60) | Herbicidal Efficacy velvetleaf (velvetleaf [3]; 300 g a.i./hectare): 3 (21-40) | Herbicidal Efficacy barnyard grass (barnyardgrass; 300 g a.i./hectare): 0 (81-100) | Herbicidal Efficacy large crabgrass (large crabgrass [4]; 300 g a.i./hectare): 0 (81-100) | Herbicidal Efficacy green foxtail (green foxtail [5]; 300 g a.i./hectare): 0 (81-100) | Herbicidal Efficacy barnyard grass (barnyard grass [6]; 300 g a.i./hectare): 3 (21-40) | Herbicidal Efficacy cocklebur (cocklebur [7]; 300 g a.i./hectare): 0 (81-100) | Herbicidal Efficacy slender amaranth (slender amaranth [8]; 300 g a.i./hectare): 0 (81-100) | Herbicidal Efficacy velvetleaf (velvetleaf [9]; 300 g a.i./hectare): 0 (81-100) | Herbicidal Efficacy large crabgrass (large crabgrass [10]; 300 g a.i./hectare): 3 (21-40) | Herbicidal Efficacy green foxtail (green foxtail [11]; 300 g a.i./hectare): 2 (41-60)

Pyrazolate [x, reference compound]
Herbicidal Efficacy barnyard grass (barnyard grass [12]; dosage 10 g a.i./are): 0 (81-100) | Herbicidal Efficacy cocklebur (cocklebur [13]; dosage 10 g a.i./are): 0 (81-100) | Herbicidal Efficacy slender amaranth (slender amaranth [14]; dosage 10 g a.i./are): 0 (81-100) | Herbicidal Efficacy velvetleaf (velvetleaf [15]; dosage 10 g a.i./are): 0 (81-100) | Herbicidal Efficacy large crabgrass (large crabgrass [16]; dosage 10 g a.i./are): 0 (81-100) | Herbicidal Efficacy green foxtail (green foxtail [17]; dosage 10 g a.i./are): 0 (81-100) | Herbicidal Efficacy barnyard grass (barnyard grass [18]; dosage 10 g a.i./are): 0 (81-100) | Herbicidal Efficacy cocklebur (cocklebur [19]; dosage 10 g a.i./are): 0 (81-100) | Herbicidal Efficacy slender amaranth (slender amaranth [20]; dosage 10 g a.i./are): 1 (61-80) | Herbicidal Efficacy velvetleaf (velvetleaf [21]; dosage 10 g a.i./are): 0 (81-100) | Herbicidal Efficacy large crabgrass (large crabgrass [22]; dosage 10 g a.i./are): 0 (81-100) | Herbicidal Efficacy green foxtail (green foxtail [23]; dosage 10 g a.i./are): 0 (81-100) | Herbicidal Efficacy cocklebur (cocklebur [1]; 1000 g a.i./hectare): 0 (81-100) | Herbicidal Efficacy slender amaranth (slender amaranth [2]; 1000 g a.i./hectare): 0 (81-100) | Herbicidal Efficacy velvetleaf (velvetleaf [3]; 1000 g a.i./hectare): 0 (81-100) | Herbicidal Efficacy barnyard grass (barnyardgrass; 1000 g a.i./hectare): 0 (81-100) | Herbicidal Efficacy large crabgrass (large crabgrass [4]; 1000 g a.i./hectare): 0 (81-100) | Herbicidal Efficacy green foxtail (green foxtail [5]; 1000 g a.i./hectare): 0 (81-100) | Herbicidal Efficacy barnyard grass (barnyard grass [6]; 1000 g a.i./hectare): 0 (81-100) | Herbicidal Efficacy cocklebur (cocklebur [7]; 1000 g a.i./hectare): 0 (81-100) | Herbicidal Efficacy slender amaranth (slender amaranth [8]; 1000 g a.i./hectare): 1 (61-80) | Herbicidal Efficacy velvetleaf (velvetleaf [9]; 1000 g a.i./hectare): 0 (81-100) | Herbicidal Efficacy large crabgrass (large crabgrass [10]; 1000 g a.i./hectare): 0 (81-100) | Herbicidal Efficacy green foxtail (green foxtail [11]; 1000 g a.i./hectare): 0 (81-100)
